{"source": "patent US20070003531A1", "about": "“Methods for improving immunotherapy by enhancing survival of antigen-specific cytotoxic T lymphocytes” (University of Connecticut, priority 2005, published 2007)", "key": {"[1]": {"test_system": "MART-127-35 epitope specific CTLs", "test": "IFN-γ response assay (ELISA)", "type": "cell-based, human", "description": "IFN-γ response assay for the effector cells has been described previously. Briefly, the effector cells were co-cultured with the peptide pulsed (1 μg/ml) T2 cells. After 4-16 h, culture supernatants were harvested and IFN-γ was measured by ELISA as per manufacturer's protocol (R & D Systems, MN)."}, "[2]": {"test_system": "MART-127-35 epitope specific human primary CTL", "test": "AICD induction and quantitation in epitope specific primary CTL (tetramer/annexin V FACS)", "type": "cell-based", "conditions": "pre-incubation about 45 min; restimulation with MART-127-35 peptide pulsed T2 cells; kinase inhibitors 25 μM, z-VAD-fmk 100 μM, Fc chimeras 10 μg/ml", "description": "FIG. 10. Effect of external death receptor blockade and MAP kinase inhibitors on AICD in the epitope specific CTLs upon secondary encounter of the cognate epitope. The CTLs were pre-incubated at optimal concentration for about 45 min. at about 37° C. with pan caspase inhibitor z-VAD-fmk (100 μM); human Fas/Fc chimera, human TNF-RI/Fc chimera, human TRAIL-RI/Fc chimera, human TRAIL-RII/Fc chimera and human IFN-γ RI/Fc chimeric proteins (10 μg/ml); p38 kinase inhibitor SB203580, JNK inhibitor anthra[1,9-cd]pyrazol-6(2H)-one (SP600125), […] inhibitor PD98059 (25 μM). Then the pretreated as well as untreated CTLs were incubated with T2 cells either alone or loaded with peptide. About 4 hours after secondary exposure cells were stained for determining: (A) Number of tetramer^+ cells out of the CD8^+ T cells [Top panel]; number of tetramer^+/Annexin V^+ and tetramer^+/Annexin^− populations [Bottom panel]. […] (B) Effect of the MAP kinase inhibitors on IFN-γ response by the effector cells.\nAICD induction and quantitation. AICD in the human primary CTL primed and expanded specifically for melanoma epitope MART-127-35 was induced by re-exposure of the CTLs to MART-127-35 peptide (1 μg/ml) as reported previously. Staurosporine mediated death was induced by exposure of CTL to 1 μM staurosporine for 4 hr. Quantitation of AICD and the effects of various inhibitors on AICD of CTLs, were carried out by annexin-V staining followed by FACS analyses as reported previously.\nIn test whether or not the epitope specific primary CTLs undergo AICD, the activated CTLs were exposed to peptide [1 μg/ml] loaded T2 cells (Effector: Target=100) at different time points of the cultures. Thereafter, the evidence of apoptosis was determined by flow cytometry with triple color staining (CD8, MART-127-35/HLA-A2 tetramer and annexin V) at different time points (4-18 h). Experiments were carried out in triplicate wells and significance was calculated by One-way analysis of variance (ANOVA) using Sigma Stat statistical software, Chicago, Ill.\nTo evaluate the effect of various agents in modulating AICD, the CTLs were pre-incubated with various compounds at optimal concentration for 45 min. at 37° C. and then exposed to T2 cells alone or loaded with peptide."}, "[3]": {"test_system": "AIF release in Jurkat cells", "test": "AIF release in CD3 induced AICD in Jurkat cells", "type": "cell-based, human", "description": "(§1) FIG. 14. Nuclear translocation of AIF and effect of SP600125 on the AIF release and such translocation. The MART-1 epitope specific CTLs generated in the in vitro CTL generation protocol were restimulated by the cognate epitope or a control epitope in the presence or absence of the JNK inhibitor SP600125. (A) Western blot of heavy membrane faction (HM) and cytosolic fraction (S-100) of control CTL (C) and CTLs restimulated by the cognate peptide (M1). As shown, AIF is released in the cytosol of CTLs encountering the cognate peptide without any release of cytochrome c. (B) Effect of SP600125 on AIF release in CD3 induced AICD in Jurkat cells. As shown, AIF is released without cytochrome c release in these cells and SP600125 interferes with the AIF release. (C) Densitometric analysis of the SP600125 effect on AIF release."}, "Mart-1 primary CTLs": {"test_system": "Mart-1 primary CTLs", "test": "Mitochondrial transmembrane potential (DiOC6 staining)", "type": "cell-based, human", "conditions": "induced by re-stimulation with cognate peptide; data not shown", "description": "FIG. 12. Effect of antigen specific secondary stimulation on mitochondrial transmembrane membrane potential (Δψm), pro- and anti-apoptotic protein and expression of cell surface molecules. (A) Differential effect on membrane polarization in Mart-1 primary CTLs (top panel) vs. Jurkat T cells (bottom panel). CTLs were incubated with T2 cells either alone or loaded with peptide. After overnight secondary exposure cells were stained with Mart-1 tetramer/CD8 and DiOC6. Histogram represents the fluorescence of DiOC6 in the gated antigen specific tetramer^+ population (top panel). Jurkat T cells were also analyzed for modulation of membrane potential after TCR-driven stimulation (bottom panel). Values represent the mean±SD of fluorescence intensity triplicates from one out of three separate experiment. *p<0.001 (One Way ANOVA). […] (C) Expression of different cell surface receptors for survival or death signal in antigen specific population upon secondary stimulation. Values on left upper corner represent the geometric mean of the fluorescence intensity for that particular marker when stimulated with T2/MAGE-3271-279 while that on right upper corner represent the geometric mean of the fluorescence intensity when stimulated with T2/MART-127-35."}, "helper T cells": {"test_system": "helper T cells", "test": "AICD in helper T cells", "type": "cell-based", "description": "Thus, JNK inhibitors, when administered alone or in combination with other therapeutics, have utility for the treatment of diseases, including AIDS, for which the death of helper T cells is a factor in the etiology, mechanism or progression of that disease."}, "[4]": {"test_system": "AIF translocation in MART-127-35 specific CTL", "test": "Mitochondrio-nuclear translocation/release of AIF in CTL during AICD", "type": "cell-based, human", "conditions": "CTL restimulated by cognate epitope", "description": "as §1\nSub-cellular Fractionation. Sub-cellular fractionation was done according to Gross, et al., with minor modifications. Heavy membrane and light membrane fractions were solublized in RIPA buffer supplemented with protease inhibitors and the proteins extracted from heavy membrane (HM), light membrane (LM) and supernatant (S-100) fractions were analyzed by immuno-blot analysis.\nImmunofluorescence microscopy. […] The cells were fixed with 4% para-formaldehyde in PBS and stained with appropriate antibodies for co-localization of proteins by fluorescence microscopy. […]"}}, "note": "Entries after “also recorded” stand apart in the source; their conditions may differ."}
{"smiles": "O=C1c2ccccc2-c2n[nH]c3cccc1c23", "note": "[SP600125, anthra[1,9-cd]pyrazol-6(2H)-one]", "values": [{"measurement": "IFN-γ synthesis by rescued CTLs", "setting": "[1]; five days continued culture in IL-15 without the inhibitor", "value": "regained"}, {"measurement": "IFN-γ response by CTLs in presence of inhibitor", "setting": "[1]; peptide pulsed T2 cells, inhibitor 25 μM", "value": "inhibited; also recorded: negatively regulates"}, {"measurement": "protection/rescue of CTL from AICD", "setting": "[2]", "value": "protected; also recorded: rescued a significant fraction; also recorded: capable of protecting; also recorded: blocked"}, {"measurement": "AIF release in Jurkat cells", "setting": "[3]", "value": "interferes"}, {"measurement": "level of hyper polarization of mitochondrial transmembrane potential", "setting": "Mart-1 primary CTLs", "value": "decreased"}, {"measurement": "AICD in helper T cells", "setting": "helper T cells", "value": "inhibit/prevent"}, {"measurement": "mitochondrio-nuclear translocation/release of AIF in CTL", "setting": "[4]", "value": "blocks; also recorded: blocking effect"}]}
